The assay is described as follows: Oral sensory evaluation of 50-ppm aqueous solutions by ten special panelists. It counts as in vivo, human. Conditions: 50-ppm aqueous solution. How it is done: Using 3-1-menthoxy-1-propanol (1) obtained in Example 1, the mixture (2) of 3-1-menthoxy-1-propanol and 1-1-menthoxy-2-propanol at a weight ratio of 93:7 obtained in Example 2, and 1-1-menthoxy-2-propanol (3) obtained in Example 1, 50-ppm aqueous solutions were prepared.
The three 50-ppm aqueous solutions were subjected to oral sensory evaluation by ten special panelists with five or more years of experience.

As for `CC1CCC(C(C)C)C(OCCCO)C1` (centres unmarked) [(1), 3-1-menthoxy-1-propanol], the refreshing sensation entry (all the ten panelists) is given as “marked refreshing sensation”. Besides, the “strength and persistence of refreshing sensation” value (seven of the ten panelists) is “stronger and long-lasting refreshing sensation”.

These data come from patent US20140328771A1, “METHOD FOR PRODUCING 3-MENTHOXY PROPANOL AND COMPOSITIONS FOR IMPARTING COOLING SENSATION” (Takasago International Corporation, priority 2011, published 2014).
